Reference: publication PMC11272598, “RG7774 (Vicasinabin), an orally bioavailable cannabinoid receptor 2 (CB2R) agonist, decreases retinal vascular permeability, leukocyte adhesion, and ocular inflammation in animal models” (Frontiers in Pharmacology, 2024)

Experiments:
Mouse CB1R = Mouse CB1R (Mus musculus, UniProt P47746); assay: Competitive binding assay in mouse brain membranes, [^3H]-CP55940; set-up: mouse brain membranes expressing endogenous CB1R; from tissue; host or cells: mouse brain membranes; conditions: RG7774 10 µM; read-out: Mean ± SEM % inhibition of control, Mouse CB1R (competitive binding assay)
Chain of Mouse CB1R (P47746 whole entry): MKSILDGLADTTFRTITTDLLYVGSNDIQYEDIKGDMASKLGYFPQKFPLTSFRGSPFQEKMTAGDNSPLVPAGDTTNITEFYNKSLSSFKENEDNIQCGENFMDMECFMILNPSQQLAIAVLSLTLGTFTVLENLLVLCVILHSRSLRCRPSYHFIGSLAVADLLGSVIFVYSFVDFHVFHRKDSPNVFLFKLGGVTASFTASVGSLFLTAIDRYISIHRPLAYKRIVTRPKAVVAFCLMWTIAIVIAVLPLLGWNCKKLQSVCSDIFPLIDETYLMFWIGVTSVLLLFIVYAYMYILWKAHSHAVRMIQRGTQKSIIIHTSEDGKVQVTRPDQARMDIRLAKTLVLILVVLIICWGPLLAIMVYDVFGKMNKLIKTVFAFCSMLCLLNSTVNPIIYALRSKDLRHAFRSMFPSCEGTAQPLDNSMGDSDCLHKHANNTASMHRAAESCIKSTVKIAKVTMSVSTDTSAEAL
Protocol: Mouse brain was resuspended in 2 mM Tris–EDTA, 320 mM sucrose, 5 mM MgCl2 (pH 7.4), homogenized using a glass potter, and centrifuged 3 times, each at 1000 g for 10 min.

P-gp [1] = molecular target: T1, P-gp (Homo sapiens, UniProt P08183); assay: P-gp assay in transfected LLC-PK1 cells; format: in vitro ADME
T1 construct: host or cells: LLC-PK1 (porcine kidney epithelial) cells
T1 sequence (P08183 whole entry): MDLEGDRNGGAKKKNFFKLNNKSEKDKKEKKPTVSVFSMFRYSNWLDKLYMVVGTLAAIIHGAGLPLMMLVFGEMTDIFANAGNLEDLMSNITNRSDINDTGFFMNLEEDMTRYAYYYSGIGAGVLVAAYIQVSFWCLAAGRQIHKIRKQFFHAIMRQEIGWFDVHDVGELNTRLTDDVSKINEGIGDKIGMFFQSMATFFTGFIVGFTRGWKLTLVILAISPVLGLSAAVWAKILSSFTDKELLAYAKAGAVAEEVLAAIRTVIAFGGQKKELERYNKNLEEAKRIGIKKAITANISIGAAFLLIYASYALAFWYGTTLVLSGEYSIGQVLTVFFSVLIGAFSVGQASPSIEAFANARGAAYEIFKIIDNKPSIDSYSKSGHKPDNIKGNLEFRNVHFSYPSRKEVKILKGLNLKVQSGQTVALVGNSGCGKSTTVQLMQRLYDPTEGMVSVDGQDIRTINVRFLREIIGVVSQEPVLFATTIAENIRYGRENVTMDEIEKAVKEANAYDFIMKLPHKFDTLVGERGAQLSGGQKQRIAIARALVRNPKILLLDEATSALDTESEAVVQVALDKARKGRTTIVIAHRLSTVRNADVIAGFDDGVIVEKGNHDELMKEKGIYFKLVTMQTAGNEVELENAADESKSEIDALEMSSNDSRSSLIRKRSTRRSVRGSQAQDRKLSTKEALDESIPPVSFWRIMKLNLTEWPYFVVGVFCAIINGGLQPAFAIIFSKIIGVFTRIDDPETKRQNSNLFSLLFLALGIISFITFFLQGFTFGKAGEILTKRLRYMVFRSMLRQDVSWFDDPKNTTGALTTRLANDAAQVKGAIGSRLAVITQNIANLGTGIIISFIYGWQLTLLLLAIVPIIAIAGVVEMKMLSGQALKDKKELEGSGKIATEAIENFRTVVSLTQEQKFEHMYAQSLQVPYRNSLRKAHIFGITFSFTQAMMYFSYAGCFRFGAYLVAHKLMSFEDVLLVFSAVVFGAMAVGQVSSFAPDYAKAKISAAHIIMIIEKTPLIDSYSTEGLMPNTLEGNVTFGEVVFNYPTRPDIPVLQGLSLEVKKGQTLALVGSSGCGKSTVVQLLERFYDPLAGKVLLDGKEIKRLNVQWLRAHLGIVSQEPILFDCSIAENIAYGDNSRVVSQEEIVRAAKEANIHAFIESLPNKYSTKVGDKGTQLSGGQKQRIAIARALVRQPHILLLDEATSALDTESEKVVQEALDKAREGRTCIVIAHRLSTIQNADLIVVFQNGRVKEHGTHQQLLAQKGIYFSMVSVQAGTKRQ
Protocol: (§1) The P-gp assay was conducted as previously described. Briefly, transfected porcine kidney epithelial (LLC-PK1) cells expressing human or mouse P-gp were cultured on 96-well semi-permeable filter membrane plates (Millipore, Darmstadt, Germany). LLC-PK1 cells were provided by Dr A. Schinkel from The Netherlands Cancer Institute (Amsterdam, The Netherlands). Cells formed a polarized monolayer with tight junctions that acted as a barrier between apical and basolateral compartments. P-gp was expressed in the apical-facing membrane of the monolayer (tightness confirmed using Lucifer yellow). […] The effect of P-gp was measured by expressing the efflux ratio of the unidirectional A > B and B > A Papp values. The mean permeability (A > B and B > A Papp) was determined in the absence of P-gp via the addition of the selective P-gp inhibitor, zosuquidar.

P-gp [2] = molecular target: T2, P-gp (Mus musculus, UniProt P21447); assay: P-gp assay in transfected LLC-PK1 cells; format: in vitro ADME
T2 construct: host or cells: LLC-PK1 (porcine kidney epithelial) cells
Protocol: as §1

[3] = Plasma PK profile in mice; format: in vivo, C57BL/6J mice
Protocol: The plasma PK profile of RG7774 was assessed in adult male C57BL/6J mice and female Wistar rats (Charles River, Cologne, Germany) housed in a controlled environment (temperature, humidity, and 12 h light/dark cycle) with unrestricted access to food and water. The ocular PK profile of RG7774 was assessed in adult female […] rats (Charles River, Mattawan, MI, United States) housed in a controlled environment (21°C–22°C temperature, 40%–60%, humidity, and 12 h light/dark cycle) with unrestricted access to food and water and conducted according to local regulations by EyeCRO (Ann Arbor, MI, United States).
In the first study (animal permission #1857), mice received RG7774 as an intravenous (IV) bolus at 1 mg/kg (n = 6) or as an oral (PO) dose at 3 mg/kg (n = 5). In the second study (animal permission #2373), rats received RG7774 as an IV bolus at 10 mg/kg (n = 4) or via gavage at 30 mg/kg (n = 3). Blood samples were collected 0.1, 1, 3, 10, and 24 h post-dose under deep anesthesia with 3%–5% isoflurane in 100% O2. Samples were collected sublingually from mice, from the tail vein in rats or via heart puncture (terminal) into anticoagulant-coated polypropylene tubes and placed on ice. Plasma was prepared within 30 min of collection by centrifugation at 3,000 g for 5 min at 4°C and was immediately frozen. RG7774 concentrations in plasma were determined using LC-MS/MS. PK parameters were estimated by non-compartmental analysis of plasma data using Phoenix WinNonlin software (Certara, Princeton, NJ, United States).

PAC1 (PACAP) (h) = PAC1 (PACAP) (h) (Homo sapiens, UniProt P41586); assay: CEREP radioligand binding; conditions: radioligand [^125I]-PACAP1-27
Chain of PAC1 (PACAP) (h) (P41586 21-468): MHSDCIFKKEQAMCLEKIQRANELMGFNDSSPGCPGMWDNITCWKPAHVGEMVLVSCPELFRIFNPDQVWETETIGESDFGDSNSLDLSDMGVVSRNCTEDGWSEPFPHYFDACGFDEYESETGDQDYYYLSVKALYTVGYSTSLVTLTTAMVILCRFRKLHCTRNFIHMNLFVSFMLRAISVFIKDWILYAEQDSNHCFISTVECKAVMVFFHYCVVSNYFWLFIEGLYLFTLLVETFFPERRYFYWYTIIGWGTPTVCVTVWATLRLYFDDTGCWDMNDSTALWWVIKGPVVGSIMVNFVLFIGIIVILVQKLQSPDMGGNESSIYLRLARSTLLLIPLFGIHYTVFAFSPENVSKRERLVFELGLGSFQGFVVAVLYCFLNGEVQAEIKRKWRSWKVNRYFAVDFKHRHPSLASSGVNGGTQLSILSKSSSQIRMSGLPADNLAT
Source text: (§2) Supplement Table1.docx, table 3: Supplementary Table S3. RG7774 binding to non-CB1R/CB2R receptors, ion channels, transporters, and enzymes (CEREP, Celle l’Evescault, France; http://www.cerep.fr). | column: % inhibition of control SB (n = 2)

Beta 1 (h) = Beta 1 (h) (Homo sapiens, UniProt P08588); assay: CEREP radioligand binding; conditions: radioligand [^3H](-)CGP 12177
Chain of Beta 1 (h) (P08588 whole entry): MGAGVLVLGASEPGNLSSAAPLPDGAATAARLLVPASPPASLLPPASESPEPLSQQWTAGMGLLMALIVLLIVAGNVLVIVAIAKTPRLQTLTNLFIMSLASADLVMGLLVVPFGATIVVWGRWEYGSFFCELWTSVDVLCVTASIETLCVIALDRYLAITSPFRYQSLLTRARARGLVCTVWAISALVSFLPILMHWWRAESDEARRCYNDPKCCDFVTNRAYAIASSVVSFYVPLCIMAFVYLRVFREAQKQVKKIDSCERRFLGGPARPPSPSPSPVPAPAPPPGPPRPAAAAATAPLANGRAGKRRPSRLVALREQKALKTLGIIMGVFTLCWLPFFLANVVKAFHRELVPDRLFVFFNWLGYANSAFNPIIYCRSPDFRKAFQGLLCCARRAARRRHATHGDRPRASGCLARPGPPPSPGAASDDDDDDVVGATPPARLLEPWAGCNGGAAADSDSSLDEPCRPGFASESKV
Source text: as §2

Y2 (h) = Y2 (h) (Homo sapiens, UniProt P49146); assay: CEREP radioligand binding; conditions: radioligand [^125I]-peptide YY
Chain of Y2 (h) (P49146 whole entry): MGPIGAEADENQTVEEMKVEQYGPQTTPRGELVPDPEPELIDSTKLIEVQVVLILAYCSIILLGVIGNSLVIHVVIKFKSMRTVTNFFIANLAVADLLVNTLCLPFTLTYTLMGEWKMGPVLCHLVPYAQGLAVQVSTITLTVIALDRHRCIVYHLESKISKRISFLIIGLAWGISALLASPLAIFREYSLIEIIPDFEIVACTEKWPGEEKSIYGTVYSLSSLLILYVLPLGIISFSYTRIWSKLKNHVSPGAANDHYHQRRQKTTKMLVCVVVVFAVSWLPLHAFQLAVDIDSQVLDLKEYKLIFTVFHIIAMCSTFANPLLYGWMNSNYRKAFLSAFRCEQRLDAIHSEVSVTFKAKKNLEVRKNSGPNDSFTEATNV
Source text: as §2

5-HT2A (h) = 5-HT2A (h) (Homo sapiens, UniProt P28223); assay: CEREP radioligand binding; conditions: radioligand [^3H]-ketanserin
Source text: as §2

Y1 (h) = Y1 (h) (Homo sapiens, UniProt P25929); assay: CEREP radioligand binding; conditions: radioligand [^125I]-peptide YY
Source text: as §2

ETB (h) = ETB (h) (Homo sapiens, UniProt P24530); assay: CEREP radioligand binding; conditions: radioligand [^125I]-endothelin-1
Source text: as §2

[4] = tested on: Ca2+ channel (L, verapamil site) (phenylalkylamine); assay: CEREP radioligand binding; conditions: radioligand [^3H]-D888
Source text: as §2

5-HT1B (h) = 5-HT1B (h) (Homo sapiens, UniProt P28222); assay: CEREP radioligand binding; conditions: radioligand [^125I]-CYP (+ 30 μM isoproterenol)
Chain of 5-HT1B (h) (P28222 whole entry): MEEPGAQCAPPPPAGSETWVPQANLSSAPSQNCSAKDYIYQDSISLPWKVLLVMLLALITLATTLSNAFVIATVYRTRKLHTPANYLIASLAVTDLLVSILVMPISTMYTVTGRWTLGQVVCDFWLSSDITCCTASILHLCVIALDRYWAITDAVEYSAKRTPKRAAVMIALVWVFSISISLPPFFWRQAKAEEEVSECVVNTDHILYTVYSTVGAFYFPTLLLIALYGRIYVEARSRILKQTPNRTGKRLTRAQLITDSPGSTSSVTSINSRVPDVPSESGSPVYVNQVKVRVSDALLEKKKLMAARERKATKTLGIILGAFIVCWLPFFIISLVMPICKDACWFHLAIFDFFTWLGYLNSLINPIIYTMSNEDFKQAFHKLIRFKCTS
Source text: as §2

A1 (h) = A1 (h) (Homo sapiens, UniProt P30542); assay: CEREP radioligand binding; conditions: radioligand [^3H]-DPCPX
Chain of A1 (h) (P30542 whole entry): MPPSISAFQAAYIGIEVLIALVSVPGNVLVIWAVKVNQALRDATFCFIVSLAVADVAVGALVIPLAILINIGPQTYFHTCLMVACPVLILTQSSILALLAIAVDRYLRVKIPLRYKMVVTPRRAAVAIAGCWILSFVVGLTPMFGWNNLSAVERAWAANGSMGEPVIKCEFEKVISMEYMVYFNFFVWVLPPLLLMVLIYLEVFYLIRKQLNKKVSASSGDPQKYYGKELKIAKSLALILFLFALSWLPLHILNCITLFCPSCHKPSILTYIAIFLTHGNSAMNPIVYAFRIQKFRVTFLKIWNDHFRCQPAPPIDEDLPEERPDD
Source text: as §2

P2X = assay: CEREP radioligand binding; conditions: radioligand [^3H]-α,β-MeATP
Source text: as §2

PDGF = assay: CEREP radioligand binding; conditions: radioligand [^125I]-PDGF BB
Source text: as §2

M3 (h) = M3 (h) (Homo sapiens, UniProt P20309); assay: CEREP radioligand binding; conditions: radioligand [^3H]-4-DAMP
Chain of M3 (h) (P20309 whole entry): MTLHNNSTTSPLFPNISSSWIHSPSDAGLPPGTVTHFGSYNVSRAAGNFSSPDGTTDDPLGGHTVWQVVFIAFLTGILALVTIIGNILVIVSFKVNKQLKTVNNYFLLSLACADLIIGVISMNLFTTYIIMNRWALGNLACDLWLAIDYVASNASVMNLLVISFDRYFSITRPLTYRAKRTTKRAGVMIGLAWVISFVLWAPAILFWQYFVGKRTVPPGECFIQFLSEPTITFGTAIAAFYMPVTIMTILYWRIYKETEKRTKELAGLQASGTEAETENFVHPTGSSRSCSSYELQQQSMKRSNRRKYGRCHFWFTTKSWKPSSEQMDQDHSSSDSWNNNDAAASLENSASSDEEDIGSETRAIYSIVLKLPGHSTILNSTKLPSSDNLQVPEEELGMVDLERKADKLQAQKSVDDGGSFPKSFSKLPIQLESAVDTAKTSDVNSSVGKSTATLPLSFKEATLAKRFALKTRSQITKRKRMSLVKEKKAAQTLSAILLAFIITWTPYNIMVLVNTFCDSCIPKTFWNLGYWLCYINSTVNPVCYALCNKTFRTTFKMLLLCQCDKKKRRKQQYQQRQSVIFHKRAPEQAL
Source text: as §2

Alpha 1 (non-selective) = assay: CEREP radioligand binding; conditions: radioligand [^3H]-prazosin
Source text: as §2

D4.4 (h) = D4.4 (h) (Homo sapiens, UniProt P21917); assay: CEREP radioligand binding; conditions: radioligand [^3H]-methyl-spiperone
Source text: as §2

GAL1 = GAL1 (Homo sapiens, UniProt P47211); assay: CEREP radioligand binding; conditions: radioligand [^125I]-galanin
Chain of GAL1 (P47211 whole entry): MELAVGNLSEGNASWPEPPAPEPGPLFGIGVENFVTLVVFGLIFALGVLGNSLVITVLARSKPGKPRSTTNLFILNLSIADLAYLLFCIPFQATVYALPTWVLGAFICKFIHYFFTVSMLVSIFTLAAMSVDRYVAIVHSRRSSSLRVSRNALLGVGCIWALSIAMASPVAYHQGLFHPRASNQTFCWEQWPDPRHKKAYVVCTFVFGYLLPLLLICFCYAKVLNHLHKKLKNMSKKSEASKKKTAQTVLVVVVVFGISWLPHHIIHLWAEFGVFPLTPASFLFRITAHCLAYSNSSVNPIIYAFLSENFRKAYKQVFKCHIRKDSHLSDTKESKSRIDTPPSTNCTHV
Source text: as §2

NK1 (h) = NK1 (h) (Homo sapiens, UniProt P25103); assay: CEREP radioligand binding; conditions: radioligand [^125I]-BH-SP
Source text: as §2

5-HT2B (h) = 5-HT2B (h) (Homo sapiens, UniProt P41595); assay: CEREP radioligand binding; conditions: radioligand [^125I](±)DOI
Source text: as §2

[5] = male, C57BL/6J, mouse, plasma, IV 1 mg/kg
[6] = male, C57BL/6J, mouse, plasma, PO 3 mg/kg

Cn1nnnc1Cn1nnc2c(N3CC[C@H](O)C3)nc(C(C)(C)C)nc21 [RG7774, (S)-1-(5-tert-butyl-3-[(1-methyl-1H-tetrazol-5-yl)methyl]-3H-[1,2,3]triazolo[4,5-d]pyrimidin-7-yl)pyrrolidin-3-ol]
inhibition at 10 µM (Mouse CB1R): 3.8%
efflux ratio at 3 h (P-gp [1]): 2.5
efflux ratio at 3 h (P-gp [2]): 16.2
AUCinf/dose ([3]; IV 1 mg/kg): 1,230 ng h^–1 ml^–1 (mg kg^−1) ^−1
AUCinf/dose ([3]; PO 3 mg/kg): 490 ng h^–1 ml^–1 (mg kg^−1) ^−1
Cmax/dose ([3]; PO 3 mg/kg): 487 ng ml^–1 (mg kg^–1) ^−1
clearance [3, 5]: 13.2 mL/min/kg
half-life [3, 5]: 9.04 h
Vd ([3]; male, C57BL/6J, mouse, plasma, IV 1 mg/kg, read-out: Vss): 3.7 L/kg
Tmax [3, 6]: 0.25 h
bioavailability [3, 6]: 42.2%
half-life [3, 6]: 2.1 h
% inhibition of control SB (n = 2) (PAC1 (PACAP) (h)): –1.3%
% inhibition of control SB (n = 2) (Beta 1 (h)): –3.1%
% inhibition of control SB (n = 2) (Y2 (h)): –3.6%
% inhibition of control SB (n = 2) (5-HT2A (h)): –4.8%
% inhibition of control SB (n = 2) (Y1 (h)): –5.5%
% inhibition of control SB (n = 2) (ETB (h)): –8.1%
% inhibition of control SB (n = 2) [4]: 3.0%
% inhibition of control SB (n = 2) (5-HT1B (h)): –10.6%
% inhibition of control SB (n = 2) (A1 (h)): 3.6%
% inhibition of control SB (n = 2) (P2X): 25.9%
% inhibition of control SB (n = 2) (PDGF): –5.6%
% inhibition of control SB (n = 2) (M3 (h)): –6.7%
% inhibition of control SB (n = 2) (Alpha 1 (non-selective)): 6.9%
% inhibition of control SB (n = 2) (D4.4 (h)): 3.7%
% inhibition of control SB (n = 2) (GAL1): –9.1%
% inhibition of control SB (n = 2) (NK1 (h)): –3.7%
% inhibition of control SB (n = 2) (5-HT2B (h)): –24.1%
